Columns and labels:
Conditions in all cases: 40% blood, 90 min
[1] = tested on: EC 25922 COL^S; experiment: MBC in human blood, EC 25922; assay type: cell-based, Escherichia coli
Experimental: (§1) Overnight stationary-phase cultures were centrifuged at 3,500×g for 10 min at room temperature and resuspended in 1×PBS to an optical density at 600 nm (OD600) of 0.4 (1×10^8 colony forming units [CFU]/mL) in RPMI with L-glutamine and phenol red (Life Technologies). […] MBC was defined as the minimum conjugate concentration required for complete bacterial clearance. An untreated growth control (40% blood, 0 μg/mL conjugate) was included in all assays.
(§2) Overnight stationary-phase cultures were centrifuged at 3,500×g for 10 min at room temperature and resuspended in 1×PBS to an optical density at 600 nm (OD600) of 0.4 (1×10^8 colony forming units [CFU]/ml) in RPMI with L-glutamine and phenol red (Life Technologies). Bacteria were diluted 1:25 in RPMI (4×10^6 CFU/ml) and 10 ul added to wells of a non-binding 96-well plate (Corning 3641) containing 80 ul of 50% hirudin anti-coagulated blood (complement active) in RPMI. […] MBC was defined as the minimum conjugate concentration required for bacterial clearance (Table 8A and Table 8B). An untreated growth control (40% blood, 0 ug/ml conjugate) was included in all assays as a growth comparator.

[2] = tested on: PA 7874 COL^R; experiment: MBC in human blood, PA 7874; assay type: cell-based, Pseudomonas aeruginosa
Experimental: as §1, §2

[3] = tested on: AB 5075 COL^S; experiment: MBC in human blood, AB 5075; assay type: cell-based, Acinetobacter baumannii
Experimental: as §1, §2

[4] = tested on: PA 01 COL^S; experiment: MBC in human blood, PA 01; assay type: cell-based, Pseudomonas aeruginosa
Experimental: as §1, §2

hIgG1 Fc: "h-IgG1 Fc (SEQ ID NO: 4)", "MW=54,731 Da"; the unconjugated Fc used as starting protein
>128 µg/mL: MBC in human hirudin-anticoagulated blood, E. coli ATCC 25922 [1] | MBC in human hirudin-anticoagulated blood, P. aeruginosa PA7874 [2] | MBC in human hirudin-anticoagulated blood, A. baumannii AB5075 [3] | MBC in human hirudin-anticoagulated blood, P. aeruginosa PAO1 [4]

Reference: US20230190950A1, “COMPOSITIONS AND METHODS FOR THE TREATMENT OF BACTERIAL INFECTIONS” (Cidara Therapeutics, Inc., priority 2017, published 2023)
